Experimental data from US11414422B2, “Substituted pyrido[4,3-b]indoles and azepino[4,5-b]indoles as inhibitors of cGAS” (The Rockefeller University, priority 2018, dated 2022).
pIC50: −log10 of the molar value.

Experiments:
[1] = target: T1, h-cGAS (Homo sapiens, UniProt Q8N884); assay: cGAS biochemical assay, RapidFire 365 mass spectrometry (RF-MS); settings: full-length h-cGAS 100 nM, dsDNA 25 nM, ATP and GTP 100 μM, 7 h at RT
T1 construct: The final concentration of full-length h-cGAS, dsDNA, ATP, and GTP were 100 nM

[2] = tested on: THP1-Dual cells; assay: Cell-based Lucia luciferase assay in THP1-Dual cells (dsDNA transfection); settings: Homo sapiens, 1 h pre-incubation, 100-bp dsDNA transfection for 24 h

T1 sequence (Q8N884 whole entry): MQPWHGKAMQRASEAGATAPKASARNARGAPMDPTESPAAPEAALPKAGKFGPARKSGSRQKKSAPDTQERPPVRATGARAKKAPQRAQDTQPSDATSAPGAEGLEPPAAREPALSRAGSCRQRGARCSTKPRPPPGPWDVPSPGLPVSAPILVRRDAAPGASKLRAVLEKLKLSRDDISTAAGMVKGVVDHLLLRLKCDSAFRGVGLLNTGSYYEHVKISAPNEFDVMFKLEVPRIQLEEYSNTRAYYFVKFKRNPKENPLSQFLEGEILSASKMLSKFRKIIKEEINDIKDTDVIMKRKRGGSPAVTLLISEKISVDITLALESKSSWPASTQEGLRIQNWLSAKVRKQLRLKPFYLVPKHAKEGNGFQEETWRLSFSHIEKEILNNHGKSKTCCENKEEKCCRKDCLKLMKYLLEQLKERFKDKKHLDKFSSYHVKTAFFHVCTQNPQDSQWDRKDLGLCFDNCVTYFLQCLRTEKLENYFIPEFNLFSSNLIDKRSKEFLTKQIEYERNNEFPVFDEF

| Compound | pIC50 [1] | pIC50 [2] |
| --- | --- | --- |
| O=C(CO)N1CCc2[nH]c3c(F)c(Cl)cc(N4CCCC4)c3c2C1 [TDI-008860] | 6.46 | < 5.00 |
| Cn1ncc(-c2cc(Cl)c(F)c3[nH]c4c(c23)CN(C(=O)CO)CC4)n1 [TDI-009186] | 7.75 | 6.14 |
| Cn1ccc(-c2cc(Br)c(F)c3[nH]c4c(c23)CN(C(=O)CO)CC4)n1 [TDI-008783] | 7.76 | 5.47 |
| O=C(CO)N1CCc2[nH]c3c(F)c(Cl)cc(N4CCCC4=O)c3c2C1 [TDI-009072] | 4.73 | < 4.40 |
| Cn1ccc(-c2cc(Cl)c(C#N)c3[nH]c4c(c23)CN(C(=O)CO)CC4)n1 [TDI-009208] | 7.41 | 5.36 |
| Cc1noc(-c2cc(Cl)c(Cl)c3[nH]c4c(c23)CN(C(=O)CO)CC4)n1 [TDI-008768] | 7.65 | 5.24 |
| O=C(CO)N1CCc2c(c3ccc(Br)c(F)c3n2C(F)F)C1 [TDI-008179] | 6.30 | 4.47 |
| O=C(CO)N1CCc2c(c3c(-c4cn[nH]c4)cc(Cl)c(F)c3n2C(F)F)C1 [TDI-008136] | 6.38 | 4.80 |
| O=C(CO)N1CCc2[nH]c3c(F)c(Cl)cc(-c4cn[nH]c4)c3c2C1 [TDI-008185] | 7.49 | 5.00 |
| O=C(CO)N1CCc2[nH]c3c(Cl)c(Cl)cc(-c4ccco4)c3c2C1 [TDI-008070] | 7.64 | 5.31 |
| O=C(CO)N1CCc2[nH]c3c(Cl)c(Cl)cc(-c4ccc5nonc5c4)c3c2C1 [TDI-008117] | 7.74 | 5.21 |
| Cc1nnc(-c2cc(Cl)c(Cl)c3[nH]c4c(c23)CN(C(=O)CO)CC4)o1 [TDI-008777] | 7.52 | 4.89 |
| Cc1nc(-c2cc(Cl)c(Cl)c3[nH]c4c(c23)CN(C(=O)CO)CC4)no1 [TDI-008937] | 7.11 | 4.79 |
| COc1cc(Cl)c(Cl)c2[nH]c3c(c12)CN(C(=O)CO)CC3 [TDI-006622] | 7.31 | – |
| Cn1c2c(c3ccc(Cl)c(Cl)c31)CN(C(=O)CO)CC2 [TDI-006366] | 6.70 | – |
| Nc1ccc(-c2cc(Cl)c(Cl)c3[nH]c4c(c23)CN(C(=O)CO)CC4)cc1 [TDI-008083] | 7.69 | – |
| Cn1cccc1-c1cc(Cl)c(Cl)c2[nH]c3c(c12)CN(C(=O)CO)CC3 [TDI-008075] | 6.33 | – |
| C[C@@H]1CN(C(=O)CO)Cc2c1[nH]c1c(F)c(Cl)cc(-c3ccn(C)n3)c21 [TDI-009000] | 7.61 | 5.54 |
| COc1ccnc(-c2cc(Cl)c(Cl)c3[nH]c4c(c23)CN(C(=O)CO)CC4)c1 [TDI-008104] | 7.02 | – |
| Cc1ccc2c3c([nH]c2c1Cl)CCN(C(=O)CO)C3 [TDI-006358] | 6.22 | – |
| Cc1noc(C)c1-c1cc(Cl)c(Cl)c2[nH]c3c(c12)CN(C(=O)CO)CC3 [TDI-008096] | 5.23 | – |
| CN1CC=C(c2cc(Cl)c(Cl)c3[nH]c4c(c23)CN(C(=O)CO)CC4)CC1 [TDI-008449] | 6.38 | – |
| Cn1c2c(c3c(-c4cn[nH]c4)cc(Cl)c(Cl)c31)CN(C(=O)CO)CC2 [TDI-007945] | 6.90 | – |
| C[C@H]1CN(C(=O)CO)Cc2c1[nH]c1c(F)c(Cl)cc(-c3ccn(C)n3)c21 [TDI-009001] | 7.49 | 5.50 |
| CNC(=O)c1cc(Cl)c(F)c2[nH]c3c(c12)CN(C(=O)CO)CC3 [TDI-008520] | 5.98 | – |
| O=C(CO)N1CCc2[nH]c3c(F)c(Cl)cc(N4CCC(F)(F)C4)c3c2C1 [TDI-008866] | 6.34 | < 5.00 |

| Compound | pIC50 [1] | pIC50 [2] |
| --- | --- | --- |
| O=C(CO)N1CCc2[nH]c3c(Cl)c(Cl)ccc3c2CC1 [TDI-006183] | 6.33 | – |
| C[C@H]1CN(C(=O)CO)Cc2c1[nH]c1c(Cl)c(Cl)ccc21 [TDI-007575] | 6.76 | – |
| O=C(CO)N1CCc2[nH]c3c(Cl)c(Cl)cc(-c4ccn[nH]4)c3c2C1 [TDI-007457] | 7.27 | – |
| Cc1nc(C)c(-c2cc(Cl)c(Cl)c3[nH]c4c(c23)CN(C(=O)CO)CC4)[nH]1 [TDI-008605] | 6.25 | – |
| COc1ncc(-c2cc(Cl)c(Cl)c3[nH]c4c(c23)CN(C(=O)CO)CC4)s1 [TDI-008114] | 7.21 | – |
| O=C(CO)N1CCc2[nH]c3c(F)c(Cl)c(Br)cc3c2C1 [TDI-007362] | 6.23 | – |
| Cc1cc(-c2cc(Cl)c(Cl)c3[nH]c4c(c23)CN(C(=O)CO)CC4)ccn1 [TDI-008445] | 7.46 | – |
| Cc1nc(C)c(-c2cc(Cl)c(Cl)c3[nH]c4c(c23)CN(C(=O)CO)CC4)s1 [TDI-008113] | 6.02 | – |
| O=C(CO)N1CCc2c(c3ccc(Br)c(F)c3n2CC(F)(F)F)C1 [TDI-008130] | 5.95 | 4.59 |
| N#Cc1c(Cl)ccc2c3c([nH]c12)CCN(C(=O)CO)C3 [TDI-006931] | 6.40 | – |
| O=C(CO)N1CCc2[nH]c3c(Cl)c(Cl)cc(C4=CCOCC4)c3c2C1 [TDI-008079] | 6.05 | – |
| COc1ccc(-c2cc(Cl)c(Cl)c3[nH]c4c(c23)CN(C(=O)CO)CC4)nc1 [TDI-008105] | 6.97 | – |
| N#Cc1cc(Cl)c(Cl)c2[nH]c3c(c12)CN(C(=O)CO)CC3 [TDI-007586] | 6.45 | – |
| Cc1[nH]ncc1-c1cc(Cl)c(Cl)c2[nH]c3c(c12)CN(C(=O)CO)CC3 [TDI-008076] | 4.94 | – |
| O=C(CO)N1CCc2[nH]c3c(Cl)c(Cl)cc(-c4cccc(O)c4)c3c2C1 [TDI-008085] | 7.51 | – |
| O=C(CO)N1CCc2[nH]c3c(F)c(Cl)cc(N4CCC5CC54)c3c2C1 (stereo not drawn) [TDI-008861] | 6.32 | < 5.00 |
| Cn1cc(-c2cc(Cl)c(Cl)c3[nH]c4c(c23)CN(C(=O)CO)CC4)ccc1=O [TDI-008108] | 6.26 | – |
| O=C(CO)N1CCc2[nH]c3c(Cl)c(Br)ccc3c2C1 [TDI-006354] | 7.37 | – |
| Cc1cncc(-c2cc(Cl)c(Cl)c3[nH]c4c(c23)CN(C(=O)CO)CC4)c1 [TDI-008447] | 7.60 | – |
| O=C(CO)N1CCc2[nH]c3c(F)c(Cl)cc(N4CCC(O)C4)c3c2C1 (stereo not drawn) [TDI-008864] | 6.34 | < 5.00 |
| N#Cc1cc2c3c([nH]c2c(F)c1Cl)CCN(C(=O)CO)C3 [TDI-007542] | 5.91 | – |
| CNc1ccc(-c2cc(Cl)c(Cl)c3[nH]c4c(c23)CN(C(=O)CO)CC4)cn1 [TDI-008101] | 6.98 | – |
| NC(=O)c1cccc(-c2cc(Cl)c(Cl)c3[nH]c4c(c23)CN(C(=O)CO)CC4)c1 [TDI-008118] | 7.11 | – |
| N#CC1CCN(c2cc(Cl)c(F)c3[nH]c4c(c23)CN(C(=O)CO)CC4)C1 (stereo not drawn) [TDI-008865] | 5.80 | < 5.00 |
| O=C(CO)N1CCc2[nH]c3c(Cl)c(Cl)cc(-c4cccs4)c3c2C1 [TDI-008081] | 7.32 | – |
| O=C(CO)N1CCc2[nH]c3c(Cl)c(Cl)cc(-c4ccccc4)c3c2C1 [TDI-008071] | 7.41 | 5.05 |

| Compound | pIC50 [1] | pIC50 [2] |
| --- | --- | --- |
| O=C(CO)N1CCc2[nH]c3c(Cl)c(Cl)cc(-c4cncnc4)c3c2C1 [TDI-008074] | 7.71 | 5.16 |
| CCn1ccc(-c2cc(Cl)c(Cl)c3[nH]c4c(c23)CN(C(=O)CO)CC4)n1 [TDI-008371] | 7.63 | 5.19 |
| Cc1ccc2c3c([nH]c2c1C)CCN(C(=O)CO)C3 [TDI-006339] | 5.12 | – |
| N#Cc1ncc(-c2cc(Cl)c(Cl)c3[nH]c4c(c23)CN(C(=O)CO)CC4)cn1 [TDI-008100] | 5.28 | – |
| O=C(CO)N1CCc2[nH]c3c(Cl)c(Cl)cc(C4=CCCCO4)c3c2C1 [TDI-008078] | 7.50 | – |
| Cc1nc2ccc(-c3cc(Cl)c(Cl)c4[nH]c5c(c34)CN(C(=O)CO)CC5)cc2n1C [TDI-008460] | 6.08 | – |
| COCCc1cc(Cl)c(Cl)c2[nH]c3c(c12)CN(C(=O)CO)CC3 [TDI-008438] | 6.95 | – |
| O=C(CO)N1CCc2[nH]c3c(Cl)c(Cl)cc(-c4cnn5ccccc45)c3c2C1 [TDI-008116] | 7.60 | 5.19 |
| C[C@@H]1CN(C(=O)CO)Cc2c1[nH]c1c(Cl)c(Cl)ccc21 [TDI-007576] | 6.49 | – |
| Cn1ncc(-c2cc(Cl)c(Cl)c3[nH]c4c(c23)CN(C(=O)CO)CC4)n1 [TDI-009007] | 7.63 | 5.94 |
| CC1CCN(c2cc(Cl)c(F)c3[nH]c4c(c23)CN(C(=O)CO)CC4)C1 (stereo not drawn) [TDI-008863] | 6.83 | < 5.00 |
| Cn1ccc(-c2cc(Cl)c(OCC(F)F)c3[nH]c4c(c23)CN(C(=O)CO)CC4)n1 [TDI-008796] | 6.01 | < 4.40 |
| O=C1COc2cc(-c3cc(Cl)c(Cl)c4[nH]c5c(c34)CN(C(=O)CO)CC5)ccc2N1 [TDI-008462] | 5.92 | – |
| O=C(CO)N1CCc2[nH]c3c(Cl)c(Cl)cc(-c4ccc(S(=O)(=O)NCCCO)cc4)c3c2C1 [TDI-008464] | 5.41 | – |
| COCC(=O)N1CCc2[nH]c3cc(Cl)ccc3c2C1 [TDI-005324] | 5.40 | – |
| CCOc1c(Cl)cc(-c2ccn(C)n2)c2c3c([nH]c12)CCN(C(=O)CO)C3 [TDI-008797] | 6.45 | – |
| Cn1nc(C(F)(F)F)cc1-c1cc(Cl)c(Cl)c2[nH]c3c(c12)CN(C(=O)CO)CC3 [TDI-008452] | 5.54 | – |
| COc1ncccc1-c1cc(Cl)c(Cl)c2[nH]c3c(c12)CN(C(=O)CO)CC3 [TDI-008110] | 5.53 | – |
| N#Cc1cccc(-c2cc(Cl)c(Cl)c3[nH]c4c(c23)CN(C(=O)CO)CC4)c1 [TDI-008098] | 7.07 | – |
| O=C(CO)N1CCc2[nH]c3c(F)c(Br)ccc3c2C1 [TDI-006529, 1-(7-Bromo-6-fluoro-1,3,4,5-tetrahydro-2H-pyrido[4,3-b]indol-2-yl)-2-hydroxyethan-1-one] | 7.41 | – |
| COCC(=O)N1CCc2[nH]c3c(Cl)cccc3c2C1 [TDI-005323] | 5.23 | – |
| COc1cccnc1-c1cc(Cl)c(Cl)c2[nH]c3c(c12)CN(C(=O)CO)CC3 [TDI-008103] | 7.36 | – |
| COCC(=O)N1CCc2[nH]c3cc(Br)ccc3c2C1 [TDI-005855] | 5.76 | – |
| O=C(CO)N1CCc2[nH]c3c(Cl)c(Cl)cc(-c4cccc(F)c4)c3c2C1 [TDI-008091] | 7.51 | – |
| CC1CN(C(=O)CO)Cc2c1[nH]c1c(Cl)c(Cl)ccc21 (stereo not drawn) [TDI-007553] | 6.52 | – |
| Cn1nccc1-c1cc(Cl)c(Cl)c2[nH]c3c(c12)CN(C(=O)CO)CC3 [TDI-008444] | 5.49 | – |
